The values that follow come from ChEMBL document CHEMBL2321868, “The discovery of novel potent trans-3,4-disubstituted pyrrolidine inhibitors of the human aspartic protease renin from in silico three-dimensional (3D) pharmacophore searches” (J Med Chem, 2013).

In assay [1] the target is T1, Renin (Homo sapiens, UniProt P00797).
T1 sequence (P00797 whole entry): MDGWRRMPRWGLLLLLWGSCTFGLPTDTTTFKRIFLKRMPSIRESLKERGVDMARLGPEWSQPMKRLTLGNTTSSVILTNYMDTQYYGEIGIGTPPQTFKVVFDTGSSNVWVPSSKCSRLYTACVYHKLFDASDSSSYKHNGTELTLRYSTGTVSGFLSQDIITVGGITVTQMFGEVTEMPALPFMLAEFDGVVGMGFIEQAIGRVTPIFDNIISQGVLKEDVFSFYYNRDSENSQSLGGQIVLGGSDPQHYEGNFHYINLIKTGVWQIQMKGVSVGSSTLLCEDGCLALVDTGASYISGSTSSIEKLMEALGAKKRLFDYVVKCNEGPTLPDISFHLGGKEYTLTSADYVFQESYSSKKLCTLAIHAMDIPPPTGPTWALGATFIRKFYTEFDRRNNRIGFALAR
As to the kind of experiment: Inhibition of human recombinant renin expressed in CHO cells using RE(EDANS)IHPFHLVIHTK(Dabcyl)R as substrate incubated for 1 hr prior to substrate addition measured after 2 hrs by FRET-based enzymatic assay.

In assay [2] the target is Cathepsin D (Homo sapiens, UniProt P07339). Briefly: Inhibition of human recombinant cathepsin-D expressed in baculovirus-infected insect sf9 cells using Ac- E-D(EDANS)-KPILFFRLG-K(Dabcyl)-E-Amid as substrate incubated for 1 hr prior to substrate addition measured after 1 hr by FRET-based enzymatic assay.
In assay [3] the target is T2, Cathepsin E (Homo sapiens, UniProt P14091).
T2 sequence (P14091 whole entry): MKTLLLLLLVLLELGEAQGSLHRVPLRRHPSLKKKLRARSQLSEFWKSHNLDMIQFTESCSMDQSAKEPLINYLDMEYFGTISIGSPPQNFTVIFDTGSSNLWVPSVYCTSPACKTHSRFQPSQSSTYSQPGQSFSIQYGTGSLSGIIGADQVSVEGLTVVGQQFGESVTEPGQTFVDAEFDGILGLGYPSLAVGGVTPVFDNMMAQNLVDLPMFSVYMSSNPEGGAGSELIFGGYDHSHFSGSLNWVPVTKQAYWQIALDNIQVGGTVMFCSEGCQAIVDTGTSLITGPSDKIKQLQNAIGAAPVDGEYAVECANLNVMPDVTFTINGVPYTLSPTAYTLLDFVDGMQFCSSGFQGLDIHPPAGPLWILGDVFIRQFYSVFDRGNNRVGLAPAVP
Briefly: Inhibition of human recombinant cathepsin-E expressed in Escherichia coli using Ac- E-D(EDANS)-KPILFFRLG-K(Dabcyl)-E-Amid as substrate incubated for 1 hr prior to substrate addition measured after 1 hr by FRET-based enzymatic assay.

Assay [4] deals with T3, Gastricsin (Homo sapiens, UniProt P20142).
T3 sequence (P20142 whole entry): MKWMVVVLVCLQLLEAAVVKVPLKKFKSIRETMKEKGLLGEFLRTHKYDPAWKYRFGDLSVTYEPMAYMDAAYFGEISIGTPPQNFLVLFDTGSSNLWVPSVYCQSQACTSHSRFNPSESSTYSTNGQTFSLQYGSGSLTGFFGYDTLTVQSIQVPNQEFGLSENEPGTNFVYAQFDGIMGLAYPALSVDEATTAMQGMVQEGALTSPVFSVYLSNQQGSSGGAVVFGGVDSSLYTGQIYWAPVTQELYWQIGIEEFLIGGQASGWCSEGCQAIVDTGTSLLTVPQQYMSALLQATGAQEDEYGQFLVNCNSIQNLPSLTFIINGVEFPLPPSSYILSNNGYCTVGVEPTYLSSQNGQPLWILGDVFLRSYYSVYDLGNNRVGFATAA
Briefly: Inhibition of human recombinant pepsin C expressed in Escherichia coli using Dabcyl-E-R-Nle-F-L-S-F-P-EDANS as substrate incubated for 1 hr prior to substrate addition measured after 1 hr by FRET-based enzymatic assay.

Assay [5] can be described thus: Inhibition of human recombinant pepsin A expressed in Escherichia coli using Dabcyl-E-R-Nle-F-L-S-F-P-EDANS as substrate incubated for 1 hr prior to substrate addition measured after 1 hr by FRET-based enzymatic assay.
Assay [6] concerns the target T4, Renin (Homo sapiens) (UniProt P00797).
T4 sequence (whole entry): T1 sequence (P00797 whole entry)
As to the kind of experiment: Inhibition of human recombinant renin expressed in CHO cells using RE(EDANS)IHPFHLVIHTK(Dabcyl)R as substrate at 10 uM incubated for 1 hr prior to substrate addition measured after 2 hrs by FRET-based enzymatic assay.

Sequence of Cathepsin D (P07339 65-162 limits assumed): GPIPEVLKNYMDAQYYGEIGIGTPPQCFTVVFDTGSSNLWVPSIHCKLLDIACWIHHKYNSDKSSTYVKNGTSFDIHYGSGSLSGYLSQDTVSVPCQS
Sequence of Cathepsin D (P07339 169-412 limits assumed): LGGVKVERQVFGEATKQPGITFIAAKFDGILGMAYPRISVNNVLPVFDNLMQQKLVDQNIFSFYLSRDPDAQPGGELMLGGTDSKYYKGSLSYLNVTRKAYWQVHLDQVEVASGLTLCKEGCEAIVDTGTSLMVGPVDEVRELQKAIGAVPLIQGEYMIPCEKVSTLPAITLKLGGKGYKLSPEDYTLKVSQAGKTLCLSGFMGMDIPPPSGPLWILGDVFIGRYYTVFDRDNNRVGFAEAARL

The term IC50 denotes the concentration that gives 50% inhibition. Consider `COCCCOc1cc(CN(CC2CNCC2Cc2ccccc2)C(C)C)ccc1OC` (racemic), for which the 50% inhibitory concentration (IC50) in assay [1] came to 7.7 µM.

In the case of `Clc1ccc(N(C[C@@H]2CNC[C@H]2Cc2ccccc2)c2ccccc2)cc1`, the IC50 in assay [1] was found to be 7.6 µM; in assay [2], 11 µM; in assay [3], 11 µM; in assay [4] it was 29 µM; in assay [5], 4.5 µM.

`Clc1ccc(N(Cc2ccccc2)CC2CNCC2Cc2ccccc2)cc1` (racemic): the IC50 in assay [1] came to 4.1 µM.

For `COCCCOc1cc(C(=O)N(C[C@H]2CNC[C@@H]2Cc2ccccc2)C(C)C)ccc1OC`, the half-inhibitory concentration (IC50) in assay [1] was determined as 2.7 µM.

For `COCCCOc1cc(C(=O)N(CC2CNCC2Cc2ccccc2)C(C)C)ccc1OC` (racemic), the IC50 in assay [1] was 0.45 µM.

`COCCCOc1cc(C(=O)N(CC2CNCC2Cc2ccccc2)c2ccccc2)ccc1OC` (racemic): in assay [1], the IC50 worked out at 1.9 µM.

Turning to `COCCCOc1cc(C(=O)N(CC2CNCC2Cc2ccccc2)c2ccc(Cl)cc2)ccc1OC` (racemic), in assay [1], the half-inhibitory concentration (IC50) worked out at 1.7 µM.

As to `Clc1ccc(N(C[C@H]2CNC[C@@H]2Cc2ccccc2)c2ccccc2)cc1`, in assay [1], the IC50 is 18 µM.

Turning to `Clc1ccc(N(CC2CNCC2Cc2ccccc2)c2ccccc2)cc1` (racemic), the IC50 in assay [1] amounted to 14 µM.

Broadly, the inhibition is the percentage by which the read-out fell short of the control. In the case of `c1ccc([C@H]2CCNC[C@@H]2OCc2ccc3ccccc3c2)cc1`, the inhibition in assay [6] worked out at 34%.

Turning to `COCCCOc1cc(CN(CC2CNCC2Cc2ccccc2)c2ccc(Cl)cc2)ccc1OC` (racemic), in assay [1], the concentration for half-maximal inhibition (IC50) was determined as 9.8 µM.
